Measurements taken from ChEMBL document CHEMBL6121069, “A Medicinal Chemistry Perspective on Protein Tyrosine Phosphatase Nonreceptor Type 2 in Tumor Immunology” (J Med Chem, 2025).

What was measured:
[1] = target: T1, Tyrosine-protein phosphatase non-receptor type 1 (Homo sapiens, UniProt P18031)
T1 sequence (P18031 whole entry): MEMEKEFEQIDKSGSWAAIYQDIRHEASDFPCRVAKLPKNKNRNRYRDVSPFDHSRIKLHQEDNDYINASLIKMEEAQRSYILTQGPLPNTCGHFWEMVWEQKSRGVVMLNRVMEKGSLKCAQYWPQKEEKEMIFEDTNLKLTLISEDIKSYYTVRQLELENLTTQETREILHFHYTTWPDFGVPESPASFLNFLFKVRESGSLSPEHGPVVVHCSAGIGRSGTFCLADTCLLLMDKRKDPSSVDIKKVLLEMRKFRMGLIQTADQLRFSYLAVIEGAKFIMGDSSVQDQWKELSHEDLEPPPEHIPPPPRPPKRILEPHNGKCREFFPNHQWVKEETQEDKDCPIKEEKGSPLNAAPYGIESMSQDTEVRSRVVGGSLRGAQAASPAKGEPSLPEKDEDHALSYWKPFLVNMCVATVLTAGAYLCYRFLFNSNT
Description: Inhibition of PTP1B (unknown origin)

[2] = test system: B16-F10; experiment: cells; details: Mus musculus
Description: Antiproliferative activity against mouse B16-F10 cells

[3] = target: T2, Tyrosine-protein phosphatase non-receptor type 2 (Homo sapiens, UniProt P17706)
T2 sequence (P17706 whole entry): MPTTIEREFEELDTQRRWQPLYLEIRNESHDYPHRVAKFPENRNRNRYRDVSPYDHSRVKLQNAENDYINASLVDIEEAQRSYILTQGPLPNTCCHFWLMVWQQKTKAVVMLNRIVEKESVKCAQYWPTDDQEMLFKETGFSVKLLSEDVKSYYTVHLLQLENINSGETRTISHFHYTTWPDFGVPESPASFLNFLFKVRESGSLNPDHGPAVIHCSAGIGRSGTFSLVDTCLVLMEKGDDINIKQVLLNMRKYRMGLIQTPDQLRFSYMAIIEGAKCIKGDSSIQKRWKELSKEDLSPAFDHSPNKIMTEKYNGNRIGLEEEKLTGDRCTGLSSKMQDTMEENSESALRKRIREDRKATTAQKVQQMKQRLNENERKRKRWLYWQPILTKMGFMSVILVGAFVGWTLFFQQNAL
Description: Binding affinity to PTPN2 (unknown origin) assessed as inhibition constant

[4] = target: T2, Tyrosine-protein phosphatase non-receptor type 2; remark: listed apart in the source
Description: Inhibition of full length human recombinant PTPN2 by mobility shift assay

[5] = target: T2, Tyrosine-protein phosphatase non-receptor type 2; remark: listed apart in the source
Description: Inhibition of PTPN2 (unknown origin)

[6] = test system: B16-F10; experiment: cells; details: Mus musculus; remark: listed apart in the source
Description: Antiproliferative activity against mouse B16-F10 cells assessed as inhibition of cell growth

[7] = target: Protein cereblon/Tyrosine-protein phosphatase non-receptor type 2 (Homo sapiens, UniProt P17706+Q96SW2); details: hek293t
Protein cereblon/Tyrosine-protein phosphatase non-receptor type 2, sequence (Q96SW2 whole entry, one chain of several): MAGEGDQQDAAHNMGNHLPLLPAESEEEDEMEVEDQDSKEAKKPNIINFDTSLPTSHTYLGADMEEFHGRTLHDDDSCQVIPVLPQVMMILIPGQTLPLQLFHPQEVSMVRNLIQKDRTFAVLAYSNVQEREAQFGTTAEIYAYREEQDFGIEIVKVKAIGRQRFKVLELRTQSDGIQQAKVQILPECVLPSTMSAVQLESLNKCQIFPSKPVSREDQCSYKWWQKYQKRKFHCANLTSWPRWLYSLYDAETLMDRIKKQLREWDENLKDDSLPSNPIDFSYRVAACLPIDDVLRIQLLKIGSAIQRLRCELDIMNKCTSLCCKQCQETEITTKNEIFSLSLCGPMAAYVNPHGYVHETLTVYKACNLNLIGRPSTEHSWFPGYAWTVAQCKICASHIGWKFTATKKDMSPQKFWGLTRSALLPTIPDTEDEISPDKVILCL
Description: PROTAC activity at PTPN2/CRBN in HEK293T cells assessed as protein degradation measured for 48 hrs by Western blot analysis

Row | Compound | IC50 [2] [nM] | IC50 [5] [nM] | further results
1 | O=P(O)(O)C(F)(F)c1ccc(CC(Cc2ccc(-c3ccccc3)cc2)(c2ccccc2)n2nnc3ccccc32)cc1 (stereo not given) |  |  | IC50 [1]: 40 nM
2 | Cc1c(O[C@@H]2O[C@H](CO[C@@H]3OC[C@@H](O)[C@H](O)[C@H]3O)[C@@H](O)[C@H](O)[C@H]2O)cc2c(c1O)C(=O)c1ccc(O)c(O)c1C2=O |  |  | IC50 [1]: 78000 nM
3 | CC1Cc2c(cc(O)c(N3CC(=O)NS3(=O)=O)c2F)CCN1 (stereo not given) | 270 |  | 
4 | O=C1CN(c2c(O)cc3c(c2F)CCNCC3)S(=O)(=O)N1 | 350 |  | 
5 | CC1CCN=C(Nc2cc(O)c(N3CC(=O)NS3(=O)=O)c(F)c2)N1 (stereo not given) | 5000 |  | Ki [3]: 5 nM
6 | O=C1CN(c2c(O)cc3c(c2F)C[C@H](NCCCC(F)F)CS3)S(=O)(=O)N1 |  |  | IC50 [4]: 2.6 nM
7 | O=C1CN(c2c(O)cc(NC(=O)NC3CCCCC3)cc2F)S(=O)(=O)N1 | < 5000 |  | 
8 | CC(C)CCN[C@@H]1C[C@H]2C[C@@H]1c1c2cc(O)c(N2CC(=O)NS2(=O)=O)c1F | 7820 |  | 
9 | O=C1CN(c2c(O)cc3ccccc3c2F)S(=O)(=O)N1 |  | 11.4 | IC50 [1]: 8.39 nM
10 | O=C1SN(CCOc2ccc([N+](=O)[O-])cc2)CN1Cc1ccccc1 |  | 1510 | 
11 | O=C1CN(c2c(O)cc(CC3CCCCNC3)cc2F)S(=O)(=O)N1 (stereo not given) |  |  | IC50 [6]: > 100000 nM
12 | CCN1CN(Cc2ccc(Br)cc2)C(=O)S1 |  | 520 | 
13 | CC(C)CCn1cc(-c2ccc(O)c(N3CC(=O)NS3(=O)=O)c2F)cn1 |  | < 1000 | 
14 | COc1ccc2cc(O)c(N3CC(=O)NS3(=O)=O)c(F)c2n1 |  | < 1000 | 
15 | Cn1c(=O)n(C2CCC(=O)NC2=O)c2cccc(C3CCN(C(=O)c4ccc5c(F)c(N6CC(=O)NS6(=O)=O)c(O)cc5c4)CC3)c21 (stereo not given) |  |  | DC50 [7]: 10 nM
16 | Cc1nn(CC(=O)Nc2ccc3c(F)c(N4CC(=O)NS4(=O)=O)c(O)cc3c2)c(C)c1-c1ccc2c(c1)n(C)c(=O)n2C1CCC(=O)NC1=O (stereo not given) |  |  | DC50 [7]: < 50 nM
17 | CC(C)CCCc1cc2c(F)c(N3CC(=O)NS3(=O)=O)c(O)cc2n(C)c1=O |  | < 1000 | 
18 | O=C1CN(c2c(O)cc3c(c2F)C[C@H](NCCC2CCC2)CC3)S(=O)(=O)N1 | < 1000 |  | 
19 | Cc1ccnc(Nc2cc(O)c(N3CC(=O)NS3(=O)=O)c(F)c2)n1 | ≥ 100000 |  | Ki [3]: ≥ 100 nM

Row | Compound | IC50 [2] [nM] | IC50 [5] [nM] | further results
20 | Cc1ccc(NCc2cc(O)c(N3CC(=O)NS3(=O)=O)c(F)c2)nn1 | 630 |  | 
21 | CC(C)CCN1CCC(Cc2cc(O)c(N3CC(=O)NS3(=O)=O)c(F)c2)C1 (stereo not given) |  |  | IC50 [6]: 8430 nM
22 | CCN[C@@H]1CCc2cc(O)c(N3CC(=O)NS3(=O)=O)c(F)c2CC1 | 54000 |  | 
23 | O=C1CN(c2c(O)cc3c(c2F)CNCCC3)S(=O)(=O)N1 |  | 1910 | 
24 | CC(C)CCN[C@@H]1CNc2cc(O)c(N3CC(=O)NS3(=O)=O)c(F)c2C1 | 1450 |  | 
25 | O=C1SN(CCN2CCN(Cc3ccc4c(c3)OCO4)CC2)CN1Cc1ccccc1 |  | 5290 | 
26 | COc1ccc(-c2ccc[nH]2)cc1N1CC(=O)NS1(=O)=O |  |  | IC50 [1]: 80 nM
27 | CC(C)CCN[C@@H]1COc2cc(O)c(N3CC(=O)NS3(=O)=O)c(F)c2C1 |  |  | IC50 [4]: 15.9 nM
28 | Cc1ccnc(NCc2cc(F)c(N3CC(=O)NS3(=O)=O)c3[nH]ncc23)c1 | 350 |  | 
29 | CC(C)CCc1ccc2ccc(N3CC(=O)NS3(=O)=O)cc2n1 |  | > 10000 | 
30 | CC(C)CCn1cnc(-c2ccc(O)c(N3CC(=O)NS3(=O)=O)c2F)c1 |  | < 1000 | 
31 | CC(C)CCc1ccc2cc(O)c(N3CC(=O)NS3(=O)=O)cc2n1 |  | < 1000 | 
32 | O=C1CN(c2c(O)cc3c(c2F)C[C@H](NCCCC(F)F)CO3)S(=O)(=O)N1 |  |  | IC50 [4]: 8.85 nM
33 | O=C(CCOCCn1cc(C2(Nc3cccc4c3C(=O)N(C3CCC(=O)NC3=O)C4=O)CC2)nn1)NCCOc1ccc2cc(O)c(N3CC(=O)NS3(=O)=O)c(F)c2c1 (stereo not given) |  |  | DC50 [7]: > 1000 nM
34 | O=C1CN(c2c(O)cc(CC3CCCNC3)cc2F)S(=O)(=O)N1 (stereo not given) |  |  | IC50 [6]: 25800 nM
35 | CCN1CCc2cc(O)c(N3CC(=O)NS3(=O)=O)c(F)c2CC1C (stereo not given) |  | 212 | 
36 | Cn1c(=O)n(C2CCC(=O)NC2=O)c2cccc(C3CCN(CCOCCC(=O)NCCOc4ccc5cc(O)c(N6CC(=O)NS6(=O)=O)c(F)c5c4)CC3)c21 (stereo not given) |  |  | DC50 [7]: > 1000 nM
37 | O=C1CN(c2c(O)cc3c(c2F)C[C@H](NCCC2CCCC2)CC3)S(=O)(=O)N1 | < 50 |  | 
